{"source": "paper PMC8522722", "about": "“Safety and Pharmacokinetics in Human Volunteers of Taniborbactam (VNRX-5133), a Novel Intravenous β-Lactamase Inhibitor” (Antimicrobial Agents and Chemotherapy, 2021)", "key": {"[1]": {"design": "species or system human", "conditions": "in vivo", "text": "To assess possible metabolites of taniborbactam, plasma and urine samples were pooled across subjects by time points, processed, and analyzed by ultra-high performance liquid chromatography tandem mass spectrometry with a quadrupole time-of-flight mass spectrometer, for acquisition of high-resolution accurate mass data, in positive mode with electrospray ionization, incorporating in-line UV detection with a photodiode array detector (Waters Acquity UPLC). The acquired chromatographic and mass spectral data were compared to analogous data obtained for the corresponding predose and placebo-dose samples to identify metabolites potentially associated with taniborbactam metabolism. Chromatographic peaks observed to be unique to the samples were subject to investigation by mass spectrometric techniques."}, "[2]": {"tested_on": "cefepime-resistant β-lactamase-producing pathogens", "design": "method as in ref 15, 16 = [15]; 15 Georgiou P-C , Siopi M , Tsala M , Lagarde C , Kloezen W , Donnelly R , Meletiadis J , Mouton J . 2018 . VNRX-5133, a novel broad-spectrum beta-lactamase inhibitor, enhances the activity of cefepim || [16]; 16 Weiss W , Pulse M , Nguyen P , Valtierra D , Peterson K , Carter K , Pevear D , Burns C , Xerri L . 2018 . Efficacy of cefepime/VNRX-5133, a novel beta-lactamase inhibitor combination, against ceph", "conditions": "cited from earlier work"}, "[3]": {"test": "Cardiodynamic ECG assessment and concentration-QT effect model (SAD part)", "type": "in vivo, human", "procedure": "ECG and pharmacokinetic data from the SAD part of the study were used to construct a concentration-QT effect model to assess potential QT effects. The primary cardiodynamic safety parameter was the corrected QT interval by Fredericia (QTcF). The potential impact of taniborbactam on other ECG intervals and T-wave morphology was also assessed. The ECG monitoring in the study was intensive, with continuous Holter 12-lead ECGs recorded on day 1. ECG data used in the modeling consisted of extracted replicates at time points that matched the pharmacokinetic data. The concentration-QT effect model included the entire single-dose range of between 62.5 mg and 1,500 mg taniborbactam."}, "[4]": {"test": "Safety and tolerability, treatment-emergent adverse events, SAD part", "type": "in vivo, human", "procedure": "Eligible subjects were randomized to receive either taniborbactam or placebo in a 3:1 ratio within dose cohorts in both the SAD and MAD parts of the study. Each dose cohort in the SAD part of the study enrolled 8 subjects, and each dose cohort in the MAD part of the study enrolled 12 subjects. In the SAD part, subjects received 62.5, 125, 250, 500, 1,000, or 1,500 mg taniborbactam as a 2-h intravenous (i.v.) infusion. In the MAD part, subjects received 2-h intravenous i.v. infusions of 250, 500, or 750 mg taniborbactam q8h over 10 days, ending after a final morning dose on day 10 (total of 28 doses).\nSafety was assessed based on the occurrence of adverse events and evaluation of laboratory tests (chemistry, hematology, urinalysis), physical examination, vital signs, and 12-lead electrocardiograms (ECGs) that were performed throughout the study. Safety was followed through 7 days postdose in the SAD part and followed through 7 days post-last dose in the MAD part."}}}
{"smiles": "NCCN[C@H]1CC[C@H](CC(=O)N[C@H]2Cc3cccc(C(=O)O)c3OB2O)CC1", "note": "[Taniborbactam]", "values": [{"measurement": "biotransformation products with a detectable UV response in pooled plasma samples", "setting": "[1]", "result": "no significant taniborbactam biotransformation products"}, {"measurement": "in vivo efficacy of cefepime", "setting": "[2]", "result": "restored the in vivo efficacy of cefepime"}, {"measurement": "QT effect (ΔΔQTcF) from exposure-response analysis", "setting": "[3]; plasma concentrations up to 80,000 ng/ml (Cmax of 1,500 mg dose)", "result": "≤ 10", "unit": "ms"}, {"measurement": "effect on heart rate, T-wave morphology, PR and QRS interval", "setting": "[3]; single doses 62.5 to 1,500 mg", "result": "did not have an effect"}, {"measurement": "deaths, serious adverse events, adverse events leading to discontinuation", "setting": "[4]; SAD and MAD parts", "result": "no deaths, serious adverse events, or adverse events leading to discontinuation"}, {"measurement": "Adverse event: Abdominal pain", "setting": "[4]; in vivo", "result": "1 (2.8) No. (%)"}, {"measurement": "Adverse event: Arthralgia", "setting": "[4]; in vivo", "result": "1 (2.8) No. (%)"}, {"measurement": "Adverse event: Back pain", "setting": "[4]; in vivo", "result": "1 (2.8) No. (%)"}, {"measurement": "Adverse event: Headache", "setting": "[4]; in vivo", "result": "1 (2.8) No. (%)"}, {"measurement": "Adverse event: Increased blood CPK", "setting": "[4]; in vivo", "result": "1 (2.8) No. (%)"}, {"measurement": "Adverse event: Increased hepatic enzyme", "setting": "[4]; in vivo", "result": "1 (2.8) No. (%)"}, {"measurement": "Adverse event: Migraine", "setting": "[4]; in vivo", "result": "1 (2.8) No. (%)"}, {"measurement": "Adverse event: Nausea", "setting": "[4]; in vivo", "result": "1 (2.8) No. (%)"}, {"measurement": "Adverse event: Pharyngitis", "setting": "[4]; in vivo", "result": "0 (0.0) No. (%)"}, {"measurement": "Adverse event: Viral URI", "setting": "[4]; in vivo", "result": "1 (2.8) No. (%)"}, {"measurement": "Adverse event: Vomiting", "setting": "[4]; in vivo", "result": "1 (2.8) No. (%)"}, {"measurement": "changes in vital signs, clinical laboratory evaluations, ECGs, physical examinations", "setting": "[4]; in vivo", "result": "no clinically significant changes"}, {"measurement": "subjects with adverse events considered by the investigator to be related to treatment", "setting": "[4]; in vivo", "result": 1, "unit": "subject"}]}
